This is an account of results in PMC8194028, “Engineering and characterization of human β-defensin-3 and its analogues and microcin J25 peptides against Mannheimia haemolytica and bovine neutrophils” (Veterinary Research, 2021).

As usually defined, the MBC is the lowest tested concentration that kills the bacteria rather than only halting them. A high value points to less potent killing.

Read-outs that look alike come from different tables or passages of the source. Positions of bridges follow the written chain, without caps; N, C: chain ends. No end group written: not given here.

For one assay, the system named is M. haemolytica. As to the kind of experiment: Inhibition of visible growth (MIC assay, optical density method). It counts as cell-based, Mannheimia haemolytica. Conditions: 10 000–25 000 bacteria/well; compared with control wells. As to the method: (§1) Wild-type HBD3, its analogues, and MccJ25 were tested against M. haemolytica-A1 using optical density method and colony count assay. Briefly, an aliquot (5 µL) from bacteria suspension stored at −80 °C was put in 5 mL BHI broth at 37 °C for 18 h. An aliquot (10 µL) from this overnight culture was added to fresh BHI broth and incubated at 37 °C for a further 5 h to obtain mid-log phase bacteria. The culture was then centrifuged for 10 min at 800 g at 4 °C. The supernatant was discarded and the bacterial pellet was resuspended in cold, sterile sodium phosphate buffer (SPB) and washed again at 800g for 10 min at 4 °C. The pellet was resuspended in 5 mL SPB. To calculate the number of CFU/mL in the 5 h culture, six successive tenfold dilutions were made. From the last dilution 100 µL was plated in duplicate on petri dishes containing BHI agar and incubated for 24 h. After 24 h the colonies were counted in the two petri dishes and then averaged. Total number of colonies was the average number of colonies multiplied by the dilution factor.
All assays were carried out in sterile 96-well polypropylene flat-bottomed plates using a broth microdilution method. Two-fold serial dilutions of peptide were made in SPB, and 50 µL of each concentration of peptide was added to the wells of the assay plate. […]

A further assay concerns M. haemolytica-A1. It counts as cell-based, Mannheimia haemolytica. The settings on record: for No. of CFU: final inoculum 5 × 10^5 cfu/mL, one of three experiments. As to the method:
as §1
All assays were carried out in sterile 96-well polypropylene flat-bottomed plates using a broth microdilution method. Two-fold serial dilutions of peptide were made in SPB, and 50 µL of each concentration of peptide was added to the wells of the assay plate. […] Positive control wells contained 50 µL of the bacteria with 50 µL of 64 µg/mL ampicillin and negative control wells contained 50 µL of SPB and 50 µL bacterial suspension. Sterility control well contained 100 µL BHI broth to test and ensure that broth was not contaminated.
The plates were sealed with aluminum foil and were incubated at 37 °C for 2 h then 50 µL of the contents of the well were pipetted on BHI agar plates and incubated for 24 h. The bactericidal activity was expressed as the MBC which is the concentration at which 99.9% of the colonies are killed and the Lethal dose 50 (LD50) at which 50% or more bacteria are killed. All experiments were run in triplicates.
Peptides HBD3, its analogues and Mccj25 were assessed for Minimum bactericidal concentration (MBC). […] All the peptides have shown intermediate to potent killing activity towards M. haemolytica (Figures 2, 3). […] However, some published studies have taken final inoculum in the range of 10^4–10^5 cfu/mL [28].

For assay [1], the system named is bovine neutrophils. As to the kind of experiment: Chemotaxis assay, 48-well Boyden chamber. It is filed as cell-based, cattle. The settings on record: peptide 50.0 μg/mL in lower well; 20 min at 37 °C; three independent experiments; ANOVA with Dunnett, P < 0.05. As to the method: (§2) Neutrophils were isolated from cattle using established methods and approved by the University of Saskatchewan’s Committee on Animal Care. For each individual animal, blood was pooled into 50 mL tubes and diluted with an equal volume of PBS then 12.5 mL of the diluted blood was layered over 10 mL of Ficoll Paque PLUS (Sigma-Aldrich, St. Louis, USA) while taking care to preserve the interface between the two liquids. Following centrifugation at 400 g for 30 min at 20 °C with the brake turned off, the lymphocyte layer was discarded along with Ficoll and plasma. The pellet was washed in 20 mL PBS with centrifugation at 500 g with low brake for 10 min. The supernatant was discarded and the pellet was suspended in equal volume of sterile water and gently mixed for 20 s followed by addition of equal volume of 1.8% NaCl to restore tonicity. The mixture was centrifuged at 500 g for 10 min and followed by another washing and centrifugation at 4 °C. The resulting neutrophil pellet was resuspended in PBS. Bovine neutrophils, collected in the above manner had more than 92% purity, and their viability was greater than 95% based on Trypan blue exclusion assay. Therefore, we use the term neutrophils in the manuscript.
We used fMLP ([…]) as the chemoattractant. […] The cells within the filter pores were then counted in five random fields under light microscope at 40×. […]

Assay [2] concerns bovine neutrophils. As to the kind of experiment: Migration inhibition assay (neutrophil migration towards fMLP). It counts as cell-based, cattle. The settings on record: neutrophils with 50.0 μg/mL peptide in upper well; fMLP 114 nM in lower well; 20 min at 37 °C; three independent experiments. As to the method:
as §2
Since peptides can be immunomodulatory, migration inhibition was carried out to determine if the peptides inhibit neutrophil migration. […]

In assay [3] the test system is 28 species and 55 strains of Gram-positive cocci and Gram-negative fermentative and non-fermentative rods. On the set-up: method as in PMID 12709350. Conditions: final bacterial inoculum 10^4 to 10^5/mL; cited from earlier work.

On to `CC1(C)S[C@@H]2[C@H](NC(=O)[C@H](N)c3ccccc3)C(=O)N2[C@H]1C(=O)O` [Ampicillin], for which the “Inhibition of visible growth of M. haemolytica” value in the assay with M. haemolytica is on record as “no growth”.

As for “GIINTLQKYYCRVRGGRCAVLSCLPKEEQIGKCSTRGRKCCRRKK (disulfide 11-40, 18-33, 23-41 (inferred)) [HBD3, Human β-Defensin 3, reference compound]”, the LD50 with M. haemolytica-A1 (2 h) came out at 6.3 µg/mL. Further, the MBC with M. haemolytica-A1 (2 h) was found to be 50.0 mg/L. Moreover, in the assay on M. haemolytica-A1 (MBC assay, classification of ref 28), the “Sensitivity of M. haemolytica to the peptide (class by MBC)” value is recorded as “intermediately sensitive (as intermediately sensitive if MBC levels were 10–100 μg/mL)”. The “No. of CFU” value in the assay on M. haemolytica-A1 (peptide 0.8 μg/mL, well row A (duplicate 1)) was above 400 CFU; in the assay on M. haemolytica-A1 (peptide 0.8 μg/mL, well row B (duplicate 2)) it was above 400 CFU; with M. haemolytica-A1 (peptide 1.6 μg/mL, well row A (duplicate 1)), above 400 CFU; in the assay with M. haemolytica-A1 (peptide 1.6 μg/mL, well row B (duplicate 2)), above 400 CFU; with M. haemolytica-A1 (peptide 3.1 μg/mL, well row A (duplicate 1)) it was above 400 CFU; with M. haemolytica-A1 (peptide 3.1 μg/mL, well row B (duplicate 2)), above 400 CFU. Also, the “No. of CFU” value in the assay with M. haemolytica-A1 (peptide 6.3 μg/mL, well row A (duplicate 1)) was found to be 210 CFU; in the assay on M. haemolytica-A1 (peptide 6.3 μg/mL, well row B (duplicate 2)), 390 CFU; in the assay with M. haemolytica-A1 (peptide 12.5 μg/mL, well row A (duplicate 1)), 42 CFU; in the assay on M. haemolytica-A1 (peptide 12.5 μg/mL, well row B (duplicate 2)), 101 CFU; with M. haemolytica-A1 (peptide 25.0 μg/mL, well row A (duplicate 1)) it was 31 CFU; in the assay with M. haemolytica-A1 (peptide 25.0 μg/mL, well row B (duplicate 2)) it was 9 CFU. For the same compound, the “No. of CFU” value in the assay with M. haemolytica-A1 (peptide 50.0 μg/mL, well row A (duplicate 1)) was 0 CFU; in the assay with M. haemolytica-A1 (peptide 50.0 μg/mL, well row B (duplicate 2)), 0 CFU; in the assay on M. haemolytica-A1 (peptide 100.0 μg/mL, well row A (duplicate 1), 2 h 37 °C, 50 μL plated, 24 h), 0 CFU; in the assay on M. haemolytica-A1 (peptide 100.0 μg/mL, well row B (duplicate 2)) it was 0 CFU. Also, the “Chemotaxis of bovine neutrophils towards peptide (migrated neutrophils vs PBS)” value in the assay with bovine neutrophils [1] was “chemotactic”. The “Effect of peptide on neutrophil migration towards fMLP” value with bovine neutrophils [2] is reported as “none of the peptides inhibited migration”. Also, the “MBC, three strains out of 55 tested (intermediate susceptibility)” value in assay [3] is 50.0 mg/L.
